Test results reported in PubChem BioAssay (NCI).
Where “and” joins values, the source holds several entries; their conditions need not be identical. Identical values can stand only once.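 Results reflect a 48-hour exposure of cells in 96-well plates to compound at five concentrations. At the GI50, growth is halved. At the TGI there is no net growth.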

How the values were obtained:
Assay in all cases: inhibition of tumour cell growth, NCI panel, 48 h
SK-MEL-2 melanoma = system: SK-MEL-2 melanoma
SN12C renal = system: SN12C renal
EKVX NSCLC = system: EKVX NSCLC
OVCAR-5 ovarian = system: OVCAR-5 ovarian
NCI-H23 lung = system: NCI-H23 lung
DU-145 prostate = system: DU-145 prostate
PC-3 prostate = system: PC-3 prostate
SR leukemia = system: SR leukemia
MDA-N = system: MDA-N
MDA-MB-435 = system: MDA-MB-435

SMILES | TGI (SK-MEL-2 melanoma) | TGI (SN12C renal) [µM] | TGI (EKVX NSCLC) [µM] | TGI (OVCAR-5 ovarian) [µM] | TGI (NCI-H23 lung) [µM] | TGI (DU-145 prostate) [µM] | TGI (PC-3 prostate) [µM] | TGI (SR leukemia) [µM] | TGI (MDA-N) | TGI (MDA-MB-435) | GI50 (DU-145 prostate) | GI50 (OVCAR-5 ovarian) | GI50 (MDA-N) | GI50 (MDA-MB-435) | GI50 (SK-MEL-2 melanoma) [µM] | GI50 (PC-3 prostate) [µM] | GI50 (SN12C renal) [µM] | GI50 (SR leukemia) [µM]
O=[N+]([O-])c1cnccc1-n1nnc2ccccc21 | 35.8 µM | 37.7 | 90.6 | 73.4 | > 62 | – | – | – | – | – | – | – | – | – | – | – | – | –
O=c1oc2ccc([N+](=O)[O-])cc2cc1-c1csc(-c2ccccc2)n1 | > 100 µM | > 100 | > 100 | > 100 | – | > 100 | > 100 | > 100 | > 100 µM | > 100 µM | – | – | – | – | – | – | – | –
CNC(=S)c1nnsc1N | > 100 µM | > 100 | > 100 | > 100 | > 100 | > 100 | > 100 | – | > 100 µM | > 100 µM | – | – | – | – | – | – | – | –
COc1ccc(OC/C(N=Cc2cccnc2)=N/NC(=O)c2ccncc2)cc1 | > 100 µM | > 100 | > 100 | > 100 | > 100 | > 100 | > 100 | – | 45.6 µM | 82.1 µM | – | – | – | – | – | – | – | –
COc1ccc(-c2c(C#N)c(N)n(C3OC(COC(C)=O)C(OC(C)=O)C(OC(C)=O)C3OC(C)=O)c(=S)c2C#N)cc1 (stereo not given) | > 100 µM and 39.8 µM | > 100 | > 100 | > 100 | > 100 | > 100 | > 100 | – | > 100 µM and 28.2 µM | > 100 µM and 26.2 µM | 84.2 µM and 34 µM | > 100 µM and 38.4 µM | 58.3 µM and 15 µM | 44.1 µM and 13.4 µM | – | – | – | –
CC(C)[Si](CC1=CCCCC12C(=O)N(COCC[Si](C)(C)C)c1ccccc12)(C(C)C)C(C)C (stereo not given) | > 100 µM | – | > 100 | 80.9 | > 100 | > 100 | > 100 | > 100 | > 100 µM | > 100 µM | – | – | – | – | – | – | – | –
O=c1[nH]nc(-c2ccccc2)c2[nH]c3c(c12)CCCc1ccccc1-3 | – | 35.8 | > 100 | 34.8 | > 100 | 57.8 | 58.5 | 69.9 | 29.4 µM | 29.6 µM | – | – | – | – | – | – | – | –
FC1(F)SC2CCCCCCCCCCC2C1(F)F (stereo not given) | 39.3 µM | – | > 100 | > 100 | 80.1 | > 100 | > 100 | > 100 | > 100 µM | > 100 µM | – | – | – | – | – | – | – | –
CCOC(=O)C(/C=N/C(N)=S)=C(/O)c1ccccc1 | > 100 µM | > 100 | > 100 | > 100 | > 100 | > 100 | – | – | > 100 µM | > 100 µM | – | – | – | – | – | – | – | –
CC1(C)CC(=O)C(/C=N/c2nc(-c3cccc([N+](=O)[O-])c3)cs2)=C(O)C1 | > 100 µM | 37.6 | 46.6 | > 100 | 37.3 | > 100 | > 100 | – | 36.5 µM | 60.7 µM | – | – | – | – | – | – | – | –
COc1cc(/C=C2\CCCC3=C2N=C2SC=NN2C3c2cc(OC)c(OC)c(OC)c2)cc(OC)c1OC (stereo not given) | > 100 µM | 7.11 | – | – | – | > 100 | > 100 | 9.47 | – | 5.17 µM | 3.97 µM | – | – | 2.04 µM | 3.46 | 3.1 | 2.39 | 2.55
COC(=O)c1cc(OCc2cc(OCc3ccc(Br)cc3)cc(OCc3ccc(Br)cc3)c2)cc(OCc2cc(OCc3ccc(Br)cc3)cc(OCc3ccc(Br)cc3)c2)c1 | > 100 µM | > 100 | > 100 | > 100 | > 100 | > 100 | > 100 | – | > 100 µM | > 100 µM | – | – | – | – | – | – | – | –
COC(=O)CC(c1ccccc1)C(C#N)(OP1(=O)OC(c2ccccc2)C(C)N1C)c1ccccc1 (stereo not given) | 92.6 µM | > 100 | > 100 | > 100 | > 100 | > 100 | > 100 | – | > 100 µM | > 100 µM | – | – | – | – | – | – | – | –
Nc1[nH]nc2c1Cc1c(n(Cc3ccc(Cl)cc3)c3ccccc13)C(=O)N2 | 34.3 µM | 28 | 59.2 | 27.3 | 23.9 | 24.4 | 23.5 | > 100 | – | 16.5 µM | – | – | – | – | – | – | – | –
Cc1ccc(S(=O)(=O)N/N=C2/C3CC4CCC2C4C3)cc1 (stereo not given) | – | > 100 | > 100 | > 100 | > 100 | > 100 | > 100 | – | > 100 µM | > 100 µM | – | – | – | – | – | – | – | –
COc1ccc(C2=Nn3c(C)nnc3S/C2=C\c2ccc(-c3ccc([N+](=O)[O-])cc3)o2)cc1 | 40.8 µM | 33.6 | 82.9 | 43 | 28.5 | 27.3 | 59.5 | – | 29.8 µM | 17.9 µM | – | – | – | – | – | – | – | –
COC(=O)C(Cc1cc(OC)c(OC)c(OC)c1)(NC(=O)c1ccccc1)P(=O)(OC)OC (stereo not given) | > 100 µM | > 100 | > 100 | > 100 | > 100 | – | – | > 100 | – | – | – | – | – | – | – | – | – | –
O=C(O)c1cc2sc(C(=O)O)cc2s1 | – | > 100 | – | > 100 | > 100 | – | – | > 100 | – | – | – | – | – | – | – | – | – | –
C=C(C)[C@H]1C=C[C@@H](OC(C)=O)[C@@]2(COC(C)=O)[C@H](OC(=O)CCC)[C@H]3[C@@H](OC(C)=O)[C@@H](C)C[C@]3(O)C(=O)[C@@](C)(OC(C)=O)[C@H]12 | > 100 µM | > 100 | > 100 | > 100 | > 100 | – | > 100 | > 100 | – | 44.2 µM | – | – | – | – | – | – | – | –
CSc1cc(Cl)c(C)cc1S(=O)(=O)NC(=O)NNc1cnc2ccccc2n1 | > 100 µM | > 100 | > 100 | > 100 | – | > 100 | > 100 | > 100 | > 100 µM | > 100 µM | – | – | – | – | – | – | – | –
CSc1nc(NC2OC(CO)C(O)C(O)C2O)c(N)c(=O)[nH]1 (stereo not given) | > 100 µM | > 100 | > 100 | > 100 | > 100 | – | – | – | – | – | – | – | – | – | – | – | – | –
Cc1nc2ccccc2n1Cc1ccc(NC(=S)NC2CCCCC2)cc1 | > 100 µM | > 100 | > 92.9 | > 100 | > 100 | > 100 | > 100 | – | > 100 µM | > 100 µM | – | – | – | – | – | – | – | –
CCN(CC)C(=O)N1CN(c2ccccc2)C2(CCN(CCCC3(c4ccc(F)cc4)OCCO3)CC2)C1=O | 33 µM | 32.8 | 90.2 | – | 36.6 | 38.3 | 34.9 | 47.5 | 35.7 µM | 38.9 µM | – | – | – | – | – | – | – | –
